Patent US20210347823A1, “METHODS OF PHYSICOCHEMICAL-GUIDED PEPTIDE DESIGN AND NOVEL PEPTIDES DERIVED THEREFROM” (Massachusetts Institute of Technology, priority 2018, published 2021)

Columns and labels:
[1] = Stability assay in fetal bovine serum; assay type: in vitro ADME; conditions: fetal bovine serum, 6 h
Description: FIGS. 6A-6B. Hemolysis and resistance to protease-mediated degradation of engineered peptides. FIG. 6A. Schematic of experimental design and hemolytic assay results of Pol-CP—NH2 and derivatives, where hemolytic activity was evaluated by incubating the peptides (0.1-100 μmol L^−1) with human red blood cells in PBS at room temperature for 1 h. Experiments were performed in triplicate, (*p<0.05). FIG. 6B. Resistance to degradation of Pol-CP—NH2 and analogs exposed to fetal bovine serum (FBS) proteases for 6 h. Experiments were done in triplicate.
Stability Assays. The stability assay was performed with GIBCO fetal bovine serum diluted to 25% in water. 20 ? L of a 10 mg mL^−1 peptide solution was added to 1 mL 25% serum solution and kept at 37° C. The experiments were made in triplicate and 100 ? L aliquots were taken at 0, 0.5, 1, 2, 4 and 6 h. 10 ? L of TFA was added to the aliquots and the new solution was kept at 5° C. for 10 min, after that it was centrifuged at 14,000 rpm for 15 min, according to Powell et al. (Powell M. F. et al., Pharm. Res. 10, 1268-1273 (1993)). The reaction kinetics was followed by liquid chromatography and the percentage of remaining peptide was calculated by integrating the peptide peak area.

[2] = test system: P. aeruginosa strain PA01; experiment: MIC assay (broth microdilution) against P. aeruginosa PA01; assay type: cell-based, Pseudomonas aeruginosa; conditions: P. aeruginosa PA01, 24 h, 37° C.
From the text: FIGS. 2A-2E. Design, physicochemical features and activity of Pol-CP—NH2 and Ala-scan analogs. FIG. 2A. Theoretical physicochemical properties of interest of the wild type and Ala-scan analogs, where H denotes hydrophobicity, μH is the hydrophobic moment, q represents the net charge and P/N is the ratio of polar/non-polar residues in the sequence. Top to bottom, left to right the sequences correspond to SEQ ID NOs: 1-13. FIG. 2B. Schematic of the in vitro biological activity experimental design. Briefly, 10^4 bacterial cells and serially diluted peptides (0-128 μmol L^−1) were added to a 96-well plate and incubated at 37° C. One day after the exposure, the solution in each well was measured in a microplate reader (600 nm) to check inhibition of bacteria compared to the untreated controls and presented as heat maps of antimicrobial activities (μmol L^−1) against four bacteria strains: E. coli strain BL21, S. aureus strain ATCC12600 and P. aeruginosa strains PA01, and PA14. Assays were performed in triplicates. FIG. 2C. Graph correlating MIC (μmol L^−1) averages vs H and (FIG. 2D) MIC (μmol L^−1) averages vs μH, where dots […] the dashed line show peptides with higher activity compared to the wild type, in which one can observe ranges of optimal activity in determined intervals of H and μH values. FIG. 2E. […]

H-ILGTILKLLKSL-NH2 [Peptide 16, ILGTILKLLKSL-NH2]
resistance to protease-mediated degradation [1]: increased resistance to protease-mediated degradation

H-ILGTILGLLKSL-NH2 [WT, ILGTILGLLKSL-NH2, reference compound]
MIC [2]: 64.0 µM
